Measurements from patent US20060014723A1, “Anti-parasitic uses of borinic acid complexes” (priority 2004, published 2006).
Values after ≈ are worked out from the molar mass of the structure shown.

What was measured:
[1] = test system: P. falciparum K1; assay: Malaria in vitro screening model (3H-hypoxanthine incorporation); type: cell-based, Plasmodium falciparum; details: for IC50: Plasmodium falciparum, K1
Procedure: […] P. falciparum K1 is used in this study. K1 (a clone originating from Thailand) is resistant to chloroquine and pyrimethamine. The strains are maintained in RPMI 1640 medium with 0.36 mM hypoxanthine, supplemented with 25 mM N 2-hydroxyethyipiperazine-N-2-ethane-sulphonic acid (HEPES), 25 mM NaHCO3, neomycin (100 U/mL) and 5 g/L of ALBUMAX® II (lipid-rich bovine serum albumin, GIBCO, Grand Island, N.Y., USA), together with 5% washed human A+ erythrocytes. All cultures and assays are conducted at 37° C. under an atmosphere of 4% CO2, 3% O2 and 93% N2. Cultures are kept in incubation chambers filled with the gas mixture. Subcultures are diluted to a parasitemia of between 0.1 and 0.5% and the medium is changed daily.
Antimalarial activity is assessed using an adaptation of the procedures described by Desjardins et al. (Antimicrob. Agents Chemother. 16:710-718, 1979), and Matile and Pink (In: Lefkovits, I. and Pernis, B. (Eds.), Immunological Methods Vol. IV, Academic Press, San Diego, pp. 221-234, 1990).
Stock drug solutions are prepared in 100% dimethylsulfoxide (DMSO) at 10 mg/mL, and heated or sonicated if necessary to dissolve the sample. After use, the stocks are kept at −20° C. For the assays, the compound is further diluted in serum-free culture medium and finally to the appropriate concentration in complete medium without hypoxanthine.
Assays are performed in sterile 96-well microtiter plates, each well containing 200 μl of parasite culture (0.15% parasitemia, 2.5% hematocrit) with or without serial drug solutions. Seven 2-fold dilutions are used, covering a range from […] to 0.078 μg/mL. For active compounds the highest concentration is lowered (e.g., to […]); for plant extracts the highest concentration is increased to 50 μg/mL. […] After 48 hours of incubation at 37° C., 0.5 μCi ^3H-hypoxanthine is added to each well. Cultures are incubated for a further 24 h before being harvested onto glass-fiber filters and washed with distilled water. The radioactivity is counted using a Betaplate liquid scintillation counter (Wallac, Zurich, Switzerland). The results are recorded as counts per minute per well at each drug concentration and expressed as percentage of the untreated controls. IC50 values are calculated from the sigmoidal inhibition curves using Microsoft EXCEL.

[2] = test system: T. b. rhodesiense STIB 900; assay: African sleeping sickness in vitro screening model (Alamar Blue); type: cell-based, Trypanosoma brucei rhodesiense; details: for IC50: Trypanosoma brucei
Procedure: Bloodstream from trypomastigotes of the strains (a) and (c) are maintained in Minimal Essential Medium (MEM) with Earle's salts supplemented according to Baltz, et al., (EMBO J. 4:1273-1277, 1985) with 25 mM N-2-hydroxyethylpiperazine-N′-2-ethane-sulphonic acid (HEPES), 1 g/L additional glucose, 1% MEM non-essential amino acids (100×), 0.2 mM 2-mercaptoethanol, 2 mM sodium pyruvate, 0.1 mM hypoxanthine and 15% heat-inactivated horse serum.
All cultures and assays are conducted at 37° C. under an atmosphere of 5% CO2 in air.
After use the stocks are kept at −20° C. For the assays, the compound is further diluted in serum-free culture medium and finally to the appropriate concentration in complete medium without hypoxanthine.
Assays are performed in 96-well microtiter plates, each well containing 100 μL of culture medium with 8×10^3 bloodstream forms with or without a serial drug dilution. The highest concentration for the test compounds is 90 μg/mL. Seven 3-fold drug dilutions are used, covering a range from 90 μg/mL to 0.123 μg/mL. Each drug is tested in duplicate. Active compounds are tested twice for confirmation. The final result is the mean of the four individual IC50 values. After 72 hrs of incubation, the plates are inspected under an inverted microscope to assure growth of the controls and sterile conditions.
(§1) Ten μL of Alamar Blue (12.5 mg resazurin dissolved in 100 mL distilled water) are now added to each well and the plates are incubated for another 2 hours. Then the plates are read with a Spectramax GEMINI XS microplate fluorometer (Molecular Devices Cooperation, Sunnyvale, Calif., USA) using an excitation wavelength of 536 nm and an emission wave length of 588 nm.
IC50 values are determined using the microplate reader software Softmax Pro (Molecular Devices Cooperation, Sunnyvale, Calif., USA).

[3] = test system: Leishmania donovani strain MHOM/ET1671L82; assay: Leishmaniasis in vitro screening model (axenic amastigotes, Alamar Blue); type: cell-based; details: for IC50: Leishmania donovani, read-out: L. donovani IC50
Procedure: The Leishmania donovani strain MHOM/ET1671L82 (obtained from Dr. S. Croft, London School of Hygiene and Tropical Medicine) is used. The strain is maintained in the Syrian Golden hamster. Amastigotes are collected from the spleen of an infected hamster. Amastigotes are grown in axenic culture at 37° C. in SM medium (Cunningham I., J. Protozoal. 24:325-329, 1977) at pH 5.4 supplemented with 10% heat-inactivated fetal bovine serum (FBS) under an atmosphere of 5% CO2 in air.
(§2) After use the stocks are kept at −20° C. For the assays, the compound is further diluted to the appropriate concentration using complete medium.
Assays are performed in 96-well flat-bottom microtiter plates (Costar, Corning Inc.), each well containing 100 μl of culture medium with 105 amastigotes from axenic culture with or without a serial drug dilution. Concentration of amastigotes is determined in a CASY cell analyzing system (Scharfe System, Reutlingen, Germany). Before the amastigotes are counted, the parasite culture is passed twice through a 22-gauge needle to break up clusters of amastigotes.
The highest concentration for the test compounds is 90 μg/mL. Seven 3-fold dilutions are used, covering a range from […]. Each drug is tested in duplicate. Active compounds are tested twice for confirmation. After 72 hours of incubation, the plates are inspected under an inverted microscope to assure growth of the controls and sterile conditions.
as §1, with “then” for “now”, “wave length” for “wavelength”
Data are analyzed using the microplate reader software Softmax Pro (Molecular Devices Cooperation, Sunnyvale, Calif., USA). Decrease of fluorescence (i.e. inhibition) is expressed as percentage of the fluorescence of control cultures and plotted against the drug concentrations. The IC50 value is calculated from the sigmoidal inhibition curve by the software program.

[4] = test system: Trypanosoma cruzi Tulahuen C2C4 strain; assay: Chagas disease in vitro screening model (beta-galactosidase strain in L-6 cells); type: cell-based; details: for IC50: Trypanosoma cruzi, TULAHUEN, L6, read-out: T. cruzi IC50
Procedure: Trypanosoma cruzi Tulahuen C2C4 strain, containing the β-galactosidase (Lac Z) gene (Buckner et al., Antimicrob. Agents Chemother 40:2592-2597, 1996) is used for this study.
The infective amastigote and trypomastigote stages are cultivated in L-6 cells (a rat skeletal myoblast cell line) in RPMI 1640 medium supplemented with 2 mM L-glutamine and 10% heat-inactivated fetal bovine serum in 12.5 cm^2 tissue culture flasks. Amastigotes develop intracellularly, differentiate into trypomastigotes, and leave the host cell. These trypomastigotes infect new L-6 cells and are the stages used to initiate an infection in the assay. All cultures and assays are conducted at 37° C. under an atmosphere of 5% CO2 in air.
as §2
Assays are performed in sterile 96-well microtiter plates, each well containing 100 μl medium with 2×10^3 L-6 cells. After 24 hours, […] of a trypanosome suspension containing 5×10^3 trypomastigote bloodstream forms from culture are added to the wells. Forty-eight hours later, the medium is removed from the wells and replaced by […] fresh medium, with or without a serial drug dilution. At this point the L-6 cells should be infected with amastigotes and no free trypomastigotes should be in the medium. Seven 3-fold drug dilutions are used, covering a range from 90 μg/mL to 0.123 μg/mL. Each drug is tested in duplicate. Active compounds are tested twice for confirmation. After 96 hours of incubation the plates are inspected under an inverted microscope to assure growth of the controls and sterility.
Then the substrate CPRG/Nonidet (50 μl) is added to all wells. A colour reaction will become visible within 2-6 hours and can be read photometrically at 540 nm. Data are transferred into a graphics program (e.g., EXCEL), sigmoidal inhibition curves determined and IC50 values calculated.

Row | Structure (SMILES) | IC50 [1] | IC50 [2] | IC50 [3] | IC50 [4] | P. falciparum IC50 [1] | T. b. rhodesiense IC50 [2] | L. donovani IC50 [3] | T. cruzi IC50 [4]
1 | Fc1cccc(B(Oc2cccc3cccnc23)c2ccc(Cl)cc2F)c1 [Compound 43, (4-Chloro-2-fluorophenyl)(3-fluorophenyl)borinic acid quinolin-8-yl ester] | 1.83 µg/mL (≈ 4.82 µM) | 0.4 µg/mL (≈ 1.05 µM) | 0.02 µg/mL (≈ 0.0527 µM) | 0.825 µg/mL (≈ 2.17 µM) | – | – | – | –
2 | CC1(C)COC(c2cccc(B(Oc3cccc4cccnc34)C3CC3)c2)=N1 [Compound 20, Cyclopropyl[3-(4,5-dihydro-4,4-dimethyloxazol-2yl)phenyl]borinic acid quinolin-8-yl ester] | 1.84 µg/mL (≈ 4.97 µM) | 0.245 µg/mL (≈ 0.662 µM) | 0.55 µg/mL (≈ 1.49 µM) | 0.86 µg/mL (≈ 2.32 µM) | – | – | – | –
3 | COc1ccc(B(Oc2cccc3cccnc23)c2ccc(Cl)cc2)cc1F [Compound 41, (4-Chlorophenyl)(3-fluoro-4-methoxyphenyl)borinic acid quinolin-8-yl ester] | 1.63 µg/mL (≈ 4.16 µM) | 0.38 µg/mL (≈ 0.97 µM) | 0.29 µg/mL (≈ 0.74 µM) | 0.935 µg/mL (≈ 2.39 µM) | – | – | – | –
4 | CN(C)Cc1ccc(B(Oc2cccc3cccnc23)c2cc(F)cc(C(F)(F)F)c2)cc1 [Compound 120] | – | – | – | – | 2.794 µg/mL | 0.42 µg/mL | 0.44 µg/mL | 4.9 µg/mL
5 | O=C(OB(c1ccc(Cl)cc1)c1ccc(Cl)cc1)c1ncccc1OCCN1CCOCC1 [Compound 76] | – | – | – | – | 3.81 µg/mL | 19.8 µg/mL | 2 µg/mL | 4.05 µg/mL
6 | N#Cc1ccc(B(Oc2cccc3cccnc23)c2ccc(F)c(F)c2)cc1 [Compound 97] | – | – | – | – | 4.036 µg/mL | 0.37 µg/mL | 0.58 µg/mL | 3.45 µg/mL
7 | N#Cc1ccc(B(Oc2cccc3cccnc23)c2cc(F)ccc2F)cc1 [Compound 35, (4-Cyanophenyl)(2,5-difluorophenyl)borinic acid quinolin-8-yl ester] | 1.74 µg/mL (≈ 4.7 µM) | 0.275 µg/mL (≈ 0.743 µM) | 0.38 µg/mL (≈ 1.03 µM) | 0.705 µg/mL (≈ 1.9 µM) | – | – | – | –
8 | N#Cc1cccc(B(Oc2cccc3cccnc23)c2cc(F)ccc2F)c1 [Compound 32, (3-Cyanophenyl)(2,5-difluorophenyl)borinic acid quinolin-8-yl ester] | 1.82 µg/mL (≈ 4.92 µM) | 0.41 µg/mL (≈ 1.11 µM) | 0.41 µg/mL (≈ 1.11 µM) | 0.73 µg/mL (≈ 1.97 µM) | – | – | – | –
9 | Nc1cccc(C(=O)OB(c2ccc(Cl)cc2)c2ccc(Cl)cc2)n1 [Compound 50] | – | – | – | – | 0.6115 µg/mL | 9.45 µg/mL | 0.23 µg/mL | 0.135 µg/mL
10 | C=CB(Oc1cccc2cccnc12)c1cccc(C2=NC(C)(C)CO2)c1 [Compound 93] | – | – | – | – | 3.034 µg/mL | 0.32 µg/mL | 0.55 µg/mL | 3.65 µg/mL
11 | C=CB(Oc1c(Cl)cc(Cl)c2ccc(C)nc12)c1cccc(N(C)C)c1 [Compound 84] | – | – | – | – | 2.364 µg/mL | 0.915 µg/mL | 0.16 µg/mL | 1.7 µg/mL
12 | Clc1ccccc1C=CBOc1cccc2cccnc12 [Compound 36, (2-Chlorophenyl)vinyl borinic acid quinolin-8-yl ester] | 1.5 µg/mL (≈ 5.11 µM) | 0.18 µg/mL (≈ 0.613 µM) | 0.39 µg/mL (≈ 1.33 µM) | 0.785 µg/mL (≈ 2.67 µM) | – | – | – | –
13 | Fc1cccc(C=CBOc2cccc3cccnc23)c1 [Compound 39, (3-Fluorophenyl)vinyl borinic acid quinolin-8-yl ester] | 122 µg/mL (≈ 440 µM) | 0.201 µg/mL (≈ 0.725 µM) | 0.34 µg/mL (≈ 1.23 µM) | 1.41 µg/mL (≈ 5.09 µM) | – | – | – | –
14 | Fc1cccc(B(Oc2cccc3cccnc23)c2ccccc2Cl)c1 [Compound 30, (2-Chlorophenyl)(3-fluorophenyl)borinic acid quinolin-8-yl ester] | 1.74 µg/mL (≈ 4.81 µM) | 0.305 µg/mL (≈ 0.843 µM) | 0.58 µg/mL (≈ 1.6 µM) | 0.82 µg/mL (≈ 2.27 µM) | – | – | – | –
15 | N#Cc1cccc(B(Oc2cccc3cccnc23)c2ccc(F)cc2F)c1 [Compound 96] | – | – | – | – | 3.035 µg/mL | 0.34 µg/mL | 0.63 µg/mL | 3.3 µg/mL
16 | COC(=O)c1cccnc1C(=O)OB(c1ccc(C)c(Cl)c1)c1ccc(C)c(Cl)c1 [Compound 73] | – | – | – | – | 2.997 µg/mL | 21.3 µg/mL | 0.63 µg/mL | 7.2 µg/mL
17 | COc1cc(B(Oc2cccc3cccnc23)c2cccc(F)c2)ccc1Cl [Compound 45, (4-Chloro-3-methoxyphenyl)(3-fluorophenyl)borinic acid quinolin-8-yl ester] | 1.84 µg/mL (≈ 4.7 µM) | 0.48 µg/mL (≈ 1.23 µM) | 0.5 µg/mL (≈ 1.28 µM) | 1.15 µg/mL (≈ 2.92 µM) | – | – | – | –
